Experimental data from ChEMBL document CHEMBL5338815 (J Med Chem, 2023).

Legend:
MDA-MB-231 [1] = experiment: Antiproliferative activity against human MDA-MB-231 cells assessed as cell viability measured after 24 hrs by CCK-8 assay; format: functional, cell-based; conditions: MDA-MB-231, 24 h
[2] = molecular target: Histone-lysine N-methyltransferase EZH2 (Homo sapiens, UniProt Q15910); experiment: Inhibition of EZH2 (unknown origin)
[3] = molecular target: Protein arginine N-methyltransferase 5 (Homo sapiens, UniProt O14744); experiment: Inhibition of PRMT5 (unknown origin)
MDA-MB-231 [4] = experiment: Reduction in H3K9me2 level in human MDA-MB-231 cells at 10 uM by Western blot analysis; format: functional, cell-based; conditions: time 24-96 hrs, TDE = time-dependent effect

Histone-lysine N-methyltransferase EZH2, sequence (Q15910 whole entry): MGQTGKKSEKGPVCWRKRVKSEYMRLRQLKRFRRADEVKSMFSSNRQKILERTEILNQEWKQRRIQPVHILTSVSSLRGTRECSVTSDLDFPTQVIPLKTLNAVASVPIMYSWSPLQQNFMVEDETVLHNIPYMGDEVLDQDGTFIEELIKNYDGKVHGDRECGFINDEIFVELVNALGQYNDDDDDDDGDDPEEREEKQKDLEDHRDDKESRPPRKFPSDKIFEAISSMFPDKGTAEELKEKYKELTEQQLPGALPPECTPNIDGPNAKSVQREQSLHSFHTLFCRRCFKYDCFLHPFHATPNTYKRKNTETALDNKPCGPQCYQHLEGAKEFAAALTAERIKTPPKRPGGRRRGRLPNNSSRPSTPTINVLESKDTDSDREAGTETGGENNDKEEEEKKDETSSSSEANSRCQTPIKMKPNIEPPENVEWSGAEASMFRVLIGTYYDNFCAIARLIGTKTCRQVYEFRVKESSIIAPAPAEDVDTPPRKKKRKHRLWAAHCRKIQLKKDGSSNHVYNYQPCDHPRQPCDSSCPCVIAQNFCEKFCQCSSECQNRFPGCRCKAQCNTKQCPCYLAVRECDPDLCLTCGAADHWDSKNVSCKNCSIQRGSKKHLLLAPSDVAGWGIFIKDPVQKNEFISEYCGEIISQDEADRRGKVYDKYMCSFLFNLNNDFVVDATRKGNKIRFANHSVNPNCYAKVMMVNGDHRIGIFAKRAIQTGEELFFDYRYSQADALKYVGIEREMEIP
Protein arginine N-methyltransferase 5, sequence (O14744 whole entry): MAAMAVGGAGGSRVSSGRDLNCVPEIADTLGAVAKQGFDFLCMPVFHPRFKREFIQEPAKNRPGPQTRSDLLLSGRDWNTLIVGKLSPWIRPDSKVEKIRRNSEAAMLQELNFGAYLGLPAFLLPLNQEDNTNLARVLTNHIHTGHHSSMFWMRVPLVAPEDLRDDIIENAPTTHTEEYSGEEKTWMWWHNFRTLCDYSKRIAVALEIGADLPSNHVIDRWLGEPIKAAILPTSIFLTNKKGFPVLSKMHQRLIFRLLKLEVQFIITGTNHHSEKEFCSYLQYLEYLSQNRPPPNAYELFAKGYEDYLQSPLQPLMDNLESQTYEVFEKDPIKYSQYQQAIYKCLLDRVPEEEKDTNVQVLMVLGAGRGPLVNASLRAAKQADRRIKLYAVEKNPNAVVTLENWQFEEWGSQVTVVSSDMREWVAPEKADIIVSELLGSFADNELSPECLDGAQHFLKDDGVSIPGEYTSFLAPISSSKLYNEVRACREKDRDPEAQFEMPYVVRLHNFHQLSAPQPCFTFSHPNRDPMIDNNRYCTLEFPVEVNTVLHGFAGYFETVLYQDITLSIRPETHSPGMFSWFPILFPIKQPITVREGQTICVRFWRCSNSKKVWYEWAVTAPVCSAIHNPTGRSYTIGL

- IC50 (MDA-MB-231 [1]): 2.88 µM
- IC50 [2]: > 20 µM
- IC50 [3]: > 20 µM
SMILES: C=CC(=O)N(C)c1nc(NC2CCN(C)CC2)c2cc(OC)c(OCCCN3CCCC3)cc2n1
- inhibition (MDA-MB-231 [4]): Tde
